Here are results for eleven compounds from ChEMBL document CHEMBL1201862, “PubChem BioAssay data set” (2004).

Test systems include A549; CCRF-CEM; HCT-15; IGROV-1; K562; LOX IMVI; MOLT-4; OVCAR-3; OVCAR-8; RXF 393; SF-295; SK-MEL-28; SK-MEL-2; SNB-19; SR; U-251; UACC-257; UO-31; HL-60; SF-268.
Assay in all cases: inhibition of tumour cell growth, NCI panel, 48 h

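Cultured in 96-well plates, cells were exposed to test compound for 48 hours across five concentrations. GI50 marks 50% less growth.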 Active and inactive are the calls of the source. No stated cut-off is given here; in the data, active = GI50 up to about 1.1 µM and inactive = higher. Some results are limits rather than exact numbers.

Consider `CC1=CCC[C@H]2[C@](C)(CC3=CC(=O)C(SCC(C)C)=CC3=O)[C@@H](C)CC[C@]12C`, for which the GI50 in the assay on A549 is 12.5 µM (inactive); with CCRF-CEM, 1.79 µM (inactive); in the assay on HCT-15, 15.1 µM; in the assay with IGROV-1, 11 µM (inactive); in the assay on K562, 5.78 µM (inactive); in the assay on LOX IMVI, 7.41 µM (inactive). Also, the GI50 in the assay with MOLT-4 was 1.53 µM (inactive); in the assay on OVCAR-3, 17.4 µM (inactive); with OVCAR-8 it was 13.3 µM (inactive); with RXF 393, 9.68 µM (inactive); with SF-295 it was 16.1 µM (inactive); in the assay on SK-MEL-28, 15.8 µM (inactive). Also, the GI50 with SK-MEL-2 was 15.9 µM (inactive); in the assay with SNB-19, 18.3 µM (inactive); in the assay with SR, 7.29 µM (inactive); with U-251 it was 14.3 µM (inactive); in the assay on UACC-257 it was 17.3 µM (inactive); in the assay with UO-31, 11.7 µM (inactive).
Turning to `Cc1ccc2c(c1)NC(c1ccc(C(=O)O)cc1)c1cccn1-2` (configuration not stated), the GI50 in the assay on A549 is 36.3 µM (inactive); in the assay on CCRF-CEM, > 100 µM (inactive); in the assay with HCT-15, over 100 µM; in the assay on K562, > 100 µM (inactive); in the assay with LOX IMVI, > 100 µM (inactive); with MOLT-4, 64.1 µM (inactive). Besides, the GI50 was 47.3 µM (inactive) in the assay with OVCAR-3; 19.7 µM (inactive) with RXF 393; 37.8 µM (inactive) in the assay on SF-295; > 100 µM (inactive) in the assay on SK-MEL-28; 43.9 µM (inactive) with SK-MEL-2; 22.4 µM (inactive) in the assay with SNB-19. The GI50 with SR was > 100 µM (inactive); with U-251, 30.9 µM (inactive); with UACC-257 it was 80.4 µM (inactive).
Regarding `COc1ccccc1[S+]([O-])Nc1ccccc1` (configuration not stated), the GI50 with A549 is 74.6 µM (inactive); in the assay on CCRF-CEM, 54.5 µM (inactive); in the assay with HCT-15, 22.8 µM; with HL-60, 82.8 µM (inactive); in the assay on IGROV-1, 37.2 µM (inactive); with K562 it was 25.4 µM (inactive). In addition, the GI50 is 71.9 µM (inactive) in the assay with LOX IMVI; 32.2 µM (inactive) in the assay on MOLT-4; > 100 µM (inactive) in the assay on OVCAR-3; > 100 µM (inactive) in the assay with OVCAR-8; 16.7 µM (inactive) in the assay with SF-268; > 100 µM (inactive) in the assay on SF-295. Moreover, the GI50 is > 100 µM (inactive) with SK-MEL-28; 34 µM (inactive) with SK-MEL-2; > 100 µM (inactive) in the assay on SNB-19; 21.6 µM (inactive) in the assay with SR; 41.6 µM (inactive) in the assay with U-251; 50.4 µM (inactive) with UACC-257. Moreover, the GI50 in the assay on UO-31 was 33.6 µM (inactive).
Regarding `CC1(C)C(=O)C(C)(C)C1=NNC(N)=S`, the GI50 in the assay on A549 was > 100 µM (inactive); in the assay with HCT-15, over 100 µM; in the assay with HL-60, > 100 µM (inactive); with IGROV-1, > 100 µM (inactive); in the assay on K562 it was > 100 µM (inactive); with LOX IMVI, > 100 µM (inactive). In addition, the GI50 in the assay with MOLT-4, with OVCAR-3, with OVCAR-8, in the assay on RXF 393, in the assay with SF-268 and in the assay with SF-295 was > 100 µM (inactive) throughout. Besides, the GI50 in the assay with SK-MEL-28, in the assay on SNB-19, with SR, in the assay with U-251, in the assay with UACC-257 and in the assay on UO-31 was > 100 µM (inactive) each time.
Turning to `CCOC(=O)NC(=S)c1ccc(O)c2ccccc12`, the GI50 in the assay on A549 is 44.9 µM (inactive); in the assay on CCRF-CEM, 8.63 µM (inactive); in the assay on HCT-15 it was 36.6 µM; in the assay with HL-60, 1.47 µM (inactive); with IGROV-1, 13.9 µM (inactive); in the assay on K562, 42.1 µM (inactive). The GI50 was 28.6 µM (inactive) in the assay on LOX IMVI; 36.1 µM (inactive) in the assay with MOLT-4; 49.8 µM (inactive) in the assay on OVCAR-3; 34.2 µM (inactive) in the assay on OVCAR-8; 12.4 µM (inactive) with SF-268; 46.3 µM (inactive) with SF-295. In addition, the GI50 in the assay on SK-MEL-28 was 32.4 µM (inactive); with SK-MEL-2, > 100 µM (inactive); in the assay with SNB-19, 95.5 µM (inactive); in the assay with SR, 25.5 µM (inactive); in the assay with U-251, > 100 µM (inactive); in the assay on UACC-257, > 100 µM (inactive). In the assay on UO-31, the GI50 was 45.6 µM (inactive).
As to `O=C1N2Cc3c4ccc5c3CN3C(=O)N6Cc7c(ccc(c7CN1C6(c1ccccc1)C23c1ccccc1)OCCOCCNCCOCCO4)OCCOCCNCCOCCO5` (configuration not stated), the GI50 with A549 was 28.6 µM (inactive); in the assay with CCRF-CEM, 23.2 µM (inactive); in the assay with HCT-15, 28.3 µM; with IGROV-1, 65.8 µM (inactive); with K562, 69.7 µM (inactive); with MOLT-4, 19.7 µM (inactive). Also, the GI50 is 15 µM (inactive) with OVCAR-3; 65 µM (inactive) with OVCAR-8; 33.2 µM (inactive) in the assay with RXF 393; > 100 µM (inactive) in the assay on SF-268; 65.5 µM (inactive) in the assay with SF-295; > 100 µM (inactive) with SK-MEL-28. Moreover, the GI50 is 59.7 µM (inactive) in the assay on SK-MEL-2; > 100 µM (inactive) with SNB-19; 54.7 µM (inactive) in the assay on SR; 28.9 µM (inactive) with U-251; 16.9 µM (inactive) in the assay on UACC-257; 38.8 µM (inactive) with UO-31.
For `O=c1[nH]nc(Cc2ccccc2)n1-n1cnnc1`, the GI50 is > 100 µM (inactive) in the assay with A549; > 100 µM (inactive) with CCRF-CEM; over 100 µM with HCT-15; > 100 µM (inactive) in the assay on IGROV-1; > 100 µM (inactive) with K562; > 100 µM (inactive) with LOX IMVI. In addition, the GI50 with MOLT-4, in the assay on OVCAR-3, in the assay with OVCAR-8, in the assay on RXF 393, in the assay on SF-268 and with SF-295 was > 100 µM (inactive) in each case. The GI50 in the assay on SK-MEL-28, with SK-MEL-2, in the assay on SNB-19, in the assay with SR, with U-251 and in the assay on UACC-257 was > 100 µM (inactive) in each case. Further, the GI50 in the assay with UO-31 is > 100 µM (inactive).
Consider `CCc1n[nH]c(=O)n1NC(=O)CCCC(=O)O`, for which the GI50 was > 100 µM (inactive) with A549; > 100 µM (inactive) in the assay with CCRF-CEM; over 100 µM with HCT-15; > 100 µM (inactive) in the assay with IGROV-1; > 100 µM (inactive) with K562; > 100 µM (inactive) in the assay with LOX IMVI. Further, the GI50 with MOLT-4, in the assay on OVCAR-3, in the assay on OVCAR-8, in the assay with RXF 393, with SF-268 and in the assay on SF-295 was > 100 µM (inactive) in each case. The GI50 with SK-MEL-2, with SNB-19, in the assay on SR, in the assay with U-251, in the assay with UACC-257 and in the assay with UO-31 was > 100 µM (inactive) in each case.
For `CC(Oc1ccc(Oc2cnc3ccc(Cl)cc3n2)cc1)C(=O)O` (configuration not stated), the GI50 with A549 is 81.1 µM (inactive); in the assay on HCT-15, over 74.1 µM; with IGROV-1, > 64.1 µM (inactive); in the assay with K562 it was > 100 µM (inactive); in the assay with LOX IMVI it was 51.6 µM (inactive); in the assay with MOLT-4 it was 11.7 µM (inactive). Further, the GI50 with OVCAR-3 was > 84.5 µM (inactive); in the assay with OVCAR-8 it was > 80.5 µM (inactive); in the assay on RXF 393, > 81.8 µM (inactive); with SF-268, > 100 µM (inactive); in the assay on SF-295, > 89.9 µM (inactive); in the assay with SK-MEL-28, > 76.7 µM (inactive). Also, the GI50 is > 88.5 µM (inactive) in the assay on SK-MEL-2; > 62.1 µM (inactive) in the assay with SNB-19; 30.1 µM (inactive) with SR; > 63.7 µM (inactive) in the assay with U-251; > 86.3 µM (inactive) in the assay with UACC-257; 72.1 µM (inactive) in the assay on UO-31.
In the case of `CC1CC[C@]2(C(=O)O)CCC3(C)C(=CC(=O)C4[C@@]5(C)CCC(=O)C(C)(C)C5CC[C@]43C)[C@@H]2[C@H]1C` (some centres not stated), the GI50 was 24.5 µM (inactive) in the assay on A549; 14.4 µM (inactive) in the assay on CCRF-CEM; 4.75 µM (inactive) in the assay on HL-60; 26.9 µM (inactive) in the assay on IGROV-1; 23.6 µM (inactive) in the assay on K562; 15.9 µM (inactive) with LOX IMVI. Also, the GI50 was 11.5 µM (inactive) in the assay on MOLT-4; 17.4 µM (inactive) in the assay with OVCAR-3; 29.4 µM (inactive) with OVCAR-8; 17.8 µM (inactive) in the assay on RXF 393; 54.3 µM (inactive) in the assay on SF-268; 31 µM (inactive) in the assay on SF-295. Moreover, the GI50 with SK-MEL-28 was 18 µM (inactive); with SNB-19 it was 40.5 µM (inactive); in the assay on SR, 10.9 µM (inactive); with U-251, 27.4 µM (inactive); in the assay on UACC-257, 23.2 µM (inactive); in the assay on UO-31, 12.5 µM (inactive).
Consider `O=C(/C=C/c1ccsc1)c1cccs1`, for which the GI50 in the assay with A549 is 33 µM (inactive); in the assay with CCRF-CEM, 18.5 µM (inactive); in the assay on HCT-15, 18.7 µM; in the assay with IGROV-1, 53.2 µM (inactive); in the assay on K562 it was 28.2 µM (inactive); with MOLT-4, > 10 µM (inactive). Moreover, the GI50 with OVCAR-3 is 22.1 µM (inactive); with OVCAR-8 it was > 10 µM (inactive); in the assay on RXF 393 it was 18.9 µM (inactive); with SF-268 it was 28.2 µM (inactive); with SF-295, 64.7 µM (inactive); in the assay on SK-MEL-28, 20.9 µM (inactive). Moreover, the GI50 with SNB-19 was 42.6 µM (inactive); in the assay with SR, > 10 µM (inactive); in the assay on U-251, 20.5 µM (inactive); in the assay with UACC-257, 66.8 µM (inactive); with UO-31 it was 18.5 µM (inactive).
